Counter-ions that a name gives are not always drawn. Like-named read-outs stand apart in the source and are kept apart here.
Experiments:
[1] = target: T1, AC1 (Homo sapiens, UniProt Q08828); assay: cAMP accumulation assay, AC1-HEK Δ3/6 KO cells; type: cell-based
T1 construct: expressed in transfected cells
Protocol: Cells were then incubated for 1 h at 37°C and 5% CO2. Cells were then treated with varying concentrations of inhibitors for 30 min, followed by treatment with calcium ionophore A23187 (3 μM) in 500 μM 3-isobutyl-1-methylxanthine (IBMX), a phosphodiesterase inhibitor, for 1 h at RT (Sigma Aldrich, St. Louis, MO). Finally, Cisbio HTRF detection reagents were added and incubated for 1–24 h at RT. Plates were read according to manufacturer’s protocol on an HTRF-compatible plate reader at 620 and 665 nm cAMP concentrations were interpolated from a cAMP standard curve. […] For cytotoxicity assays, compounds were tested at 30 μM and this protocol was used with the exception of detection reagents; CellTiter-Glo 2.0 reagent was used according to manufacturer’s protocol and luminescence was read on the Synergy Neo2 plate reader. Data are normalized to cells treated with vehicle (100%) or 2% tween (0%) and are represented as the percent of vehicle, from the average of three independent experiments (N = 3).

[2] = target: T2, AC8 (Homo sapiens, UniProt P40145); assay: cAMP accumulation assay, AC8-HEK Δ3/6 KO cells; type: cell-based; conditions: CDI analog SAR set, 3 μM A23187; read-out: IC50 (μM) ± SEM AC8
T2 construct: expressed in transfected cells
T2 sequence (P40145 whole entry, species assumed): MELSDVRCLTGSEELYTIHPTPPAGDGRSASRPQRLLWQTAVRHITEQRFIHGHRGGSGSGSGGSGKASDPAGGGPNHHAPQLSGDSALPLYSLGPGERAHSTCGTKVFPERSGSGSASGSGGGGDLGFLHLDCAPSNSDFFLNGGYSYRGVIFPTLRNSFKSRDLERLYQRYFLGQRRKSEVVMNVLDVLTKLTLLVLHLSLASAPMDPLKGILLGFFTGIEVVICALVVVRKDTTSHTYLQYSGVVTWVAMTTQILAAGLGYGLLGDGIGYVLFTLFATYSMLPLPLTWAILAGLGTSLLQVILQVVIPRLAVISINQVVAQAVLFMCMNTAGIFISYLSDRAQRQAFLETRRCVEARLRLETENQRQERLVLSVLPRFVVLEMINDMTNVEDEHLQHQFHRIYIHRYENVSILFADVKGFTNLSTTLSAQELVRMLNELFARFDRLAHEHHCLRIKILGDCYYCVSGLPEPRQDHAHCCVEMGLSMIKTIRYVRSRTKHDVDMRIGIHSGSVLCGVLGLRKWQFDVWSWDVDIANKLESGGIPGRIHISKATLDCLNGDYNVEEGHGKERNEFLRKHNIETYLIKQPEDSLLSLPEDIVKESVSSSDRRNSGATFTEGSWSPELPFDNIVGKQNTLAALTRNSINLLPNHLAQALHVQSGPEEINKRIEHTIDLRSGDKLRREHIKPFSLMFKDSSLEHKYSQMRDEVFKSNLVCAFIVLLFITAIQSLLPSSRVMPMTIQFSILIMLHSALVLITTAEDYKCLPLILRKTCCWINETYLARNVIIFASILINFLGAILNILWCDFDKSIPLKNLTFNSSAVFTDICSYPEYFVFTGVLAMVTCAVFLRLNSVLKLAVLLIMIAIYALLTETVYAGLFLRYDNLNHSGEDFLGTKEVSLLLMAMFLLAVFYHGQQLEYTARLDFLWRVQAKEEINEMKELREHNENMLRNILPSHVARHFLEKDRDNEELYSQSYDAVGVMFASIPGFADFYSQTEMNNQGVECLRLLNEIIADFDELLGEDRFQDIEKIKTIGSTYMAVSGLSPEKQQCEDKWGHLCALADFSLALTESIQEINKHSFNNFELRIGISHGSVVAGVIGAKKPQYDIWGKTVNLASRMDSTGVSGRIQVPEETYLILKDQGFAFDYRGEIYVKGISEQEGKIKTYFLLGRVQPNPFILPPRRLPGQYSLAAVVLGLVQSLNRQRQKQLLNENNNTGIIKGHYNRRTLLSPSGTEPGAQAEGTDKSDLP
Protocol: (§1) Cryopreserved HEK293 cells with AC3 and AC6 knocked out, and stably expressing AC1, AC2, AC5, or AC8 (AC1-HEK Δ3/6 KO, AC2-HEK Δ3/6 KO, AC5-HEK Δ3/6 KO, or AC8-HEK Δ3/6 KO cells, respectively; [Soto-Velasquez et al., 2018]) were plated at 5,000 cells/well. Cells were then incubated for 1 h at 37°C and 5% CO2. Cells were then treated with varying concentrations of inhibitors for 30 min, followed by treatment with calcium ionophore A23187 (3 μM) in 500 μM 3-isobutyl-1-methylxanthine (IBMX), a phosphodiesterase inhibitor, for 1 h at RT (Sigma Aldrich, St. Louis, MO). Finally, Cisbio HTRF detection reagents were added and incubated for 1–24 h at RT. Plates were read according to manufacturer’s protocol on an HTRF-compatible plate reader at 620 and 665 nm cAMP concentrations were interpolated from a cAMP standard curve. […] For cytotoxicity assays, compounds were tested at 30 μM and this protocol was used with the exception of detection reagents; CellTiter-Glo 2.0 reagent was used according to manufacturer’s protocol and luminescence was read on the Synergy Neo2 plate reader. Data are normalized to cells treated with vehicle (100%) or 2% tween (0%) and are represented as the percent of vehicle, from the average of three independent experiments (N = 3).

[3] = Cytotoxicity assay (CellTiter-Glo 2.0) in AC1-HEK Δ3/6 KO cells; type: cell-based; conditions: human, percent of vehicle, read-out: % Viable Cells at AC1 30 μM
Protocol: as §1

[4] = target: T3, AC8-Nt/CaM (Homo sapiens, UniProt P0DP23); assay: AC8-Nt/CaM FP counterscreen assay; type: binding; conditions: for Ki / Ki (μM) AC8 NT: Cheng-Prusoff from FP IC50 and Kd, n/i given where none; for Ki ratio (AC8 NT/AC1): ratio >1: more potent in AC1/CaM FP;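 for all read-outs here: fluorescence polarization of AC peptide binding GST-CaM in HEPES buffer with CaCl2, compound preincubated with CaM 30 min, peptide read after 2 h at room temperature in dark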
T3 construct: made in house; host or cells: E. coli BL21-CodonPlus (DE3)-RIPL

[5] = target: T4, AC1-C1b/CaM (Homo sapiens, UniProt P0DP23); assay: AC1-C1b/CaM fluorescence polarization (FP) assay; type: binding; conditions: for IC50: 100 nM AC1-C1b, 100 nM GST-CaM, 95% CI in brackets; for Ki: Cheng-Prusoff from FP IC50 and Kd; for AC1-CaM FP % inhib: relative to 100 μM CDZ (100% inhibition), highest concentration tested
T4 construct: made in house; host or cells: E. coli BL21-CodonPlus (DE3)-RIPL

[6] = target: T5, AC8/CaM PPI (Homo sapiens, UniProt P0DP23); assay: AC8/CaM NanoBiT assay in HEK293T cells; type: cell-based, rat; conditions: HEK293T, thapsigargin-stimulated, AUC; read-out: Nanobit: AC8-CaM IC50 (μM ± SEM)
T5 construct: confirmed as an AC1/AC8 non-selective hit against full-length AC1- and AC8-CaM in the NanoBiT assay; The hCaM residues 1–149, residues 1–1,248 of rat AC8 (rAC8); expressed in transfected cells; host or cells: HEK293T, transient transfection

[7] = target: T6, AC1/CaM PPI (Homo sapiens, UniProt P0DP23); assay: AC1/CaM NanoBiT assay in HEK293T cells; type: cell-based; conditions: HEK293T, thapsigargin-stimulated, AUC; for IC50: read-out: Nanobit: AC1-CaM IC50 (μM ± SEM)
T6 construct: human AC1 (hAC1) residues 1–1,118 were cloned; The hCaM residues 1–149, residues 1–1,248 of rat AC8 (rAC8); expressed in transfected cells; host or cells: HEK293T, transient transfection

[8] = target: T7, AC8-C2b/CaM (Homo sapiens, UniProt P0DP23); assay: AC8-C2b/CaM FP counterscreen assay; type: binding; conditions: for Ki / Ki (μM) AC8 C2b: Cheng-Prusoff from FP IC50 and Kd, n/i given where none; for Ki ratio (AC8-C2b/AC1): ratio >1: more potent in AC1/CaM FP;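 for all read-outs here: fluorescence polarization of AC peptide binding to GST-CaM in HEPES buffer with KCl and 50 µM CaCl2, compound preincubated 30 min with GST-CaM, DMSO and calmidazolium as controls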
T7 construct: made in house; host or cells: E. coli BL21-CodonPlus (DE3)-RIPL

[9] = CellTiter-Glo 2.0 cell viability assay; type: cell-based; conditions: human, HEK293T cells, pH 7.4; at the compound's AC1/CaM NanoBiT IC50 concentration; read-out: % Viable Cells at AC1 IC50;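 note: luminescence read-out after 30 min compound exposure at 37 °C in HEPES-buffered HBSS, scaled to vehicle-treated cells as 100% and cell-free buffer wells as 0%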
[10] = CDI analog SAR set, 3 μM A23187, read-out: IC50 (μM) ± SEM AC1

T1 sequence (Q08828 whole entry): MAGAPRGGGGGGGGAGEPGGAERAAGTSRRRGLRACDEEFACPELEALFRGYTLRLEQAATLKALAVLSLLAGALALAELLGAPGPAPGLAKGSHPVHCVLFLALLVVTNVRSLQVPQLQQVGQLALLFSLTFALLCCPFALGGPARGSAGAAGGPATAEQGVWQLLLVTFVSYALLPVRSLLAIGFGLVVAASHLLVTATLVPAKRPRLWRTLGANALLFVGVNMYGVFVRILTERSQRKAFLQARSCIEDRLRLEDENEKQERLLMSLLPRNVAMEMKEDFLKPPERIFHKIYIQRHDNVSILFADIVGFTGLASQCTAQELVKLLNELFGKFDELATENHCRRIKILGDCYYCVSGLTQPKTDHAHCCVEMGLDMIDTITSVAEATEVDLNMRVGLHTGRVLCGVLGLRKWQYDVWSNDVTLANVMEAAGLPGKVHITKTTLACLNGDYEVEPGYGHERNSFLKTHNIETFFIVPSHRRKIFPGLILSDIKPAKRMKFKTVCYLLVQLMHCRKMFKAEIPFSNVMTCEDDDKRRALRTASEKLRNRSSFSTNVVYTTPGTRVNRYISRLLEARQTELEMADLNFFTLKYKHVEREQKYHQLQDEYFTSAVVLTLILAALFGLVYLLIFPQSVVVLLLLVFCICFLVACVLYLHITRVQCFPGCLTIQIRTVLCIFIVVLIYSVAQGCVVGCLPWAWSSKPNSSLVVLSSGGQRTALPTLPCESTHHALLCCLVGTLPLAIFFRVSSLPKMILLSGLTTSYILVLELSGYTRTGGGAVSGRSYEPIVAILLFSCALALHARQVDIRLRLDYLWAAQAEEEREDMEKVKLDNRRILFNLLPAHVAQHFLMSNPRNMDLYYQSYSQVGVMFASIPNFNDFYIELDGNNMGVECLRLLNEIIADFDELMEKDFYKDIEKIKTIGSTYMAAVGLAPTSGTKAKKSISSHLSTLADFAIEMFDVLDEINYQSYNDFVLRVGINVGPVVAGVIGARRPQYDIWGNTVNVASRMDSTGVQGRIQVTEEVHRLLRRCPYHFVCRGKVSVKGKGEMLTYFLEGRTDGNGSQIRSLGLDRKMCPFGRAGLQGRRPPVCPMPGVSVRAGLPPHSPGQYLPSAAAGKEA

| SMILES | IC50 [1, 10] | IC50 [2] | viability at 30 min, 30 μM [3] | Ki [4] | IC50 [5] | Ki [5] | IC50 [6] | IC50 [7] | Ki [8] | viability at 30 min [9] | AC1-CaM FP % inhib [5] | Ki ratio (AC8 NT/AC1) [4] | Ki ratio (AC8-C2b/AC1) [8] | further results |
| --- | --- | --- | --- | --- | --- | --- | --- | --- | --- | --- | --- | --- | --- | --- |
| CCc1cc(C(c2cccs2)N2CCCCC2)c(NC(=O)c2ccco2)s1 (stereo not shown) [Compound 22] | 2.48 ± 0.39 µM | 3.23 ± 0.57 µM | 97% |  |  |  |  |  |  |  |  |  |  |  |
| CN(C)c1ccc2nc3ccc(=[N+](C)C)cc-3sc2c1 [Compound 2, Methylene Blue] |  |  |  | 3.2 µM | 2.18 µM | 0.51 µM | 80.3 ± 1.14 µM | 98 ± 1.14 µM | 0.82 µM | 86% |  |  |  |  |
| CCc1oc2ccccc2c1C(=O)c1cc(Br)c(O)c(Br)c1 [Compound 12, Benzbromarone] |  |  |  | 52.1 µM | 33 µM | 7.8 µM | 4.16 ± 1.15 µM | 1.7 ± 1.17 µM | 23.8 µM | 90% | 47% |  |  | inhibition of AC1 activity (efficacy) ([1]; initial characterization of hits, data not shown): ~75%; IC50 ([1]; initial examination, 10,000 cells per well, 3 μM A23187, 1 h RT, read-out: AC1 IC50 ± SEM): 4.09 ± 2.41 µM |
| CCCCCCCCCCCCCCCC[N+](C)(C)CCN(Cc1ccc(OC)cc1)c1ncccn1 [Compound 4, Thonzonium] |  |  |  | 2.7 µM | 4.14 µM | 1 µM | 18.5 ± 1.26 µM | 29.1 ± 1.2 µM | 3.6 µM | 100% | 94% | 2.7 | 3.7 |  |
| Cc1ccc(S(=O)(=O)Nc2cc(N3CCCS3(=O)=O)ccc2C)cc1 [Compound 19] |  |  |  |  | 43.4 µM | 10.3 µM |  |  |  |  |  | AC1 Selective | AC1 Selective | Ki (μM) AC8 NT [4]: n/i; Nanobit: AC1-CaM IC50 (μM ± SEM) [7]: No Inhibition; Ki (μM) AC8 C2b [8]: n/i |
| CN(C(=O)CN(CCO)CC(=O)N(C)C(C)(C)Cc1ccccc1)C(C)(C)Cc1ccccc1 [Compound 8, Oxetacaine] |  |  |  | 38 µM | 20 µM | 4.7 µM | 34.6 ± 1.32 µM | 40 ± 1.15 µM | 33.5 µM | 93.3% | 38% | 8.0 | 7.1 |  |
| CCC12CN3CC(CC)(CN(C1)C31C(=O)N(C)c3ccc(Br)cc31)C2=O (stereo not shown) [Compound 14] |  |  |  |  | 58.2 µM | 13.8 µM |  | 84 ± 1.7 µM |  | 100% |  | AC1 Selective | AC1 Selective | Ki (μM) AC8 NT [4]: n/i; Ki (μM) AC8 C2b [8]: n/i |
| CCN(C)C(=O)Oc1cccc([C@H](C)N(C)C)c1 [rivastigmine tartrate] |  |  |  |  |  |  |  |  |  |  |  |  |  | inhibition of AC1/CaM in the FP assay after fresh powder stocks were ordered ([5]; repurchased powder): did not exhibit significant inhibition |
| CCc1cc(C(c2cccs2)N2CCN(CC)CC2)c(NC(=O)c2ccco2)s1 (stereo not shown) [Compound 26] | 4.39 ± 0.44 µM | 2.92 ± 1.36 µM | 61% |  |  |  |  |  |  |  |  |  |  |  |
| CN1CCN(C(c2cccs2)c2c(NC(=O)c3ccco3)sc3c2CCCC3)CC1 (stereo not shown) [Compound 27] | 34.8 ± 13 µM | 25.6 ± 6.77 µM | 48% |  |  |  |  |  |  |  |  |  |  |  |
| CN1CCN(CCNC(=O)c2cc3c(=O)n(C)c(=O)n(C)c3s2)CC1 [Compound 17] |  |  |  |  | 75.4 µM | 17.8 µM |  |  |  |  | 53% | AC1 Selective | AC1 Selective | Ki (μM) AC8 NT [4]: n/i; Nanobit: AC1-CaM IC50 (μM ± SEM) [7]: No Inhibition; Ki (μM) AC8 C2b [8]: n/i |
| CCc1cc(C(c2cccs2)N2CCOCC2)c(NC(=O)c2ccco2)s1 (stereo not shown) [Compound 31] | 5.25 ± 1.07 µM | 1.49 ± 0.38 µM | 37% |  |  |  |  |  |  |  |  |  |  |  |
